Assay results reported in US20260176289A1, “SMALL MOLECULE INHIBITORS OF KRAS PROTEINS” (Merck Sharp & Dohme LLC, priority 2022, published 2026).
Like-named read-outs stand apart in the source and are kept apart here.

Key:
KRAS-G12V = KRAS-G12V (Homo sapiens, UniProt P01116, G12V); test: SOS-catalyzed nucleotide exchange assay (Procedure A, TR-FRET), KRAS-G12V; assay type: biochemical
Outline: (§1)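 Signal ratio (520/495 nm, excitation 340 nm) reports Bodipy-GDP retention on biotinylated RAS after SOS-catalyzed exchange with 3 mM GTP. SOS was 40 nM, except 160 nM for G12V. Room-temperature exchange lasted 60 min (90 min for G12V), following a 60 min compound preincubation.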

KRAS-G12D = KRAS-G12D (Homo sapiens, UniProt P01116, G12D); test: SOS-catalyzed nucleotide exchange assay (Procedure A, TR-FRET), KRAS-G12D; assay type: biochemical
Outline: as §1

KRAS-G13D = KRAS-G13D (Homo sapiens, UniProt P01116, G13D); test: SOS-catalyzed nucleotide exchange assay (Procedure A, TR-FRET), KRAS-G13D; assay type: biochemical
Text: (§2) Procedure for SOS-Catalyzed Nucleotide Exchange Assay for KRAS-WT, G12C/D/V, G13D, HRAS, and NRAS (Procedure A)
(§3) Recombinant KRAS-G12C protein used in this assay has an additional triple mutation (C51S/C80L/C118S). Whereas KRAS-WT, G12D/V, G13D, HRAS and NRAS are in context of their WT protein sequence background. Specifically, the SOS-catalyzed nucleotide exchange assay utilizes a preformed TR-FRET complex containing a specific biotinylated RAS protein (KRAS-WT, G12C/V/D, G13D, HRAS, NRAS; described above) with Bodipy-GDP, and Terbium-streptavidin. Compounds are preincubated with this complex for 60 minutes. Subsequently, recombinant human SOS protein and unlabeled GTP are added to initiate the exchange reaction. Small molecule inhibitors stabilize the Bodipy-GDP complex whereas the untreated protein rapidly exchanges Bodipy-GDP for unlabeled GTP resulting in reduced TR-FRET signal.
(§4) To assemble the preformed TR-FRET complexes, each biotinylated RAS protein is diluted to 2 μM in an EDTA Buffer (20 mM HEPES pH 7.5, 50 mM sodium chloride, 10 mM EDTA, and 0.01% Tween) and incubated at room temperature for one hour. This mixture is then further diluted to 90 nM in an Assay Buffer (20 mM HEPES pH 7.5, 150 mM sodium chloride, 10 mM magnesium chloride, and 0.005% Tween) containing 15 nM of Terbium-Streptavidin (Invitrogen, catalog #PV3577) and 900 nM of Bodipy-GDP (Invitrogen, catalog #G22360) and incubated at room temperature for six hours. It should be noted that this preformed TR-FRET complex for each of the RAS protein were made ahead of time, aliquoted and stored at −80° C. until the day of the experiment.
(§5) Each test compound (10 mM stock in DMSO) is diluted in DMSO to make a final-10-point, 3-fold dilution and is acoustically dispensed into a 384-well assay plate (Corning, catalog #3820) using an Echo 550 (Labcyte). Each well of the assay plate receives 3 μL of a specific 3×RAS preformed TR-FRET complex and 3 μL of Assay Buffer and is incubated at room temperature for 60 minutes (preincubation time). Each well then receives 3 μL of 3×recombinant human SOS protein and GTP (Sigma, G8877) in Assay Buffer and is incubated at room temperature for 30 minutes (G13D), 60 minutes (KRAS WT/G12C/D, H/NRAS) or 90 minutes for G12V. The final reaction in each well of 9 μL consists of 3 mM GTP, specific Ras and SOS proteins in the following concentrations: KRAS-G12C/SOS=3 nM/40 nM, KRAS-WT and G12D/SOS=1 nM/40 nM, KRAS-G12V/SOS=1.25 nM/160 nM. KRAS-G13D/SOS=1.25 nM/0 nM, HRAS and NRAS=1.25 nM/40 nM.
(§6) The time-resolved fluorescence resonance energy transfer (TR-FRET) signal is measured on an Envision (PerkinElmer) plate reader: Excitation filter=340 nm; emission 1=495 nm; emission2=520 nm; dichroic mirror=D400/D505; delay time=[…]. The signal of each well is determined as the ratio of the emission at 520 nm to that at 495 nm. Percent effect of each well is determined after normalization to control wells containing DMSO (no effect) or a saturating concentration of inhibitor (max effect). The apparent effect as a function of compound concentration is fit to a four-parameter logistic equation.

AsPC-1 cells = test: Cellular phospho-ERK assay, AsPC-1 cells (homozygous KRAS-G12D); assay type: cell-based; settings: Homo sapiens, read-out: AsPC1 pERK IC50
Outline: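 10k–15k cells/well, o/n attach; cpd 2 h, 37 °C, 10-pt 1:3 from 30 μM final; lyse with protease/phosphatase inhibitors 30 min RT; multiplex SureFire p-ERK + total ERK; IC50 via 4PL on ratio.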

[1] = target: KRAS-G12C (C51S/C80L/C118S) (Homo sapiens, UniProt P01116, C118S/C51S/C80L/G12C); test: SOS-catalyzed nucleotide exchange assay (Procedure A, TR-FRET), KRAS-G12C; assay type: biochemical
Text: as §2, §3, §4, §5, §6

KRAS-WT = KRAS-WT (Homo sapiens, UniProt P01116); test: SOS-catalyzed nucleotide exchange assay (Procedure A, TR-FRET), KRAS-WT; assay type: biochemical
Outline: as §1

[2] = nucleotide exchange, read-out: KRAS G12V GNE IC50
[3] = nucleotide exchange, read-out: KRAS G12D GNE IC50
[4] = nucleotide exchange, Procedure A, read-out: KRAS G13D GNE IC50
[5] = ASPC1, 2 h, 2 hours compound incubation
[6] = nucleotide exchange, Procedure A, read-out: KRAS G12C GNE IC50
[7] = nucleotide exchange, read-out: KRAS WT GNE IC50

KRAS-G12D, sequence (P01116 with tags, fused parts or gaps isoform P01116-2 G12D): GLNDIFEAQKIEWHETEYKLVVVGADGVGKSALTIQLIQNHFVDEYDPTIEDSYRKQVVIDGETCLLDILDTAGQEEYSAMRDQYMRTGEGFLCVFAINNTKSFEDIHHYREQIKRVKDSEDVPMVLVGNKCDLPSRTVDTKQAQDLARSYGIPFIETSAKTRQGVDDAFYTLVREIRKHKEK
KRAS-G12C (C51S/C80L/C118S), sequence (P01116 with tags, fused parts or gaps isoform P01116-2 G12C/C51S/C80L/C118S): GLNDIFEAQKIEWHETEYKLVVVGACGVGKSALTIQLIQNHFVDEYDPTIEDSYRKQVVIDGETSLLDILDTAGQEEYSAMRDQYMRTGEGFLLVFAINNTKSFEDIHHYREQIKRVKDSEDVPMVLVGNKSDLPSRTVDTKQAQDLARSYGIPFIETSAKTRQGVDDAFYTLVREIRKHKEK
KRAS-G12V, sequence (P01116 with tags, fused parts or gaps isoform P01116-2 G12V): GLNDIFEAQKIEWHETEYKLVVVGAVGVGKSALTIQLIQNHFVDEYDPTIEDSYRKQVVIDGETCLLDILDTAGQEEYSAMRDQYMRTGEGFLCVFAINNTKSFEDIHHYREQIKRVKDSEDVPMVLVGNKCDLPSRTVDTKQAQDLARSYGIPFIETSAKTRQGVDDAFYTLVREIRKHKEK
KRAS-G13D, sequence (P01116 with tags, fused parts or gaps isoform P01116-2 G13D): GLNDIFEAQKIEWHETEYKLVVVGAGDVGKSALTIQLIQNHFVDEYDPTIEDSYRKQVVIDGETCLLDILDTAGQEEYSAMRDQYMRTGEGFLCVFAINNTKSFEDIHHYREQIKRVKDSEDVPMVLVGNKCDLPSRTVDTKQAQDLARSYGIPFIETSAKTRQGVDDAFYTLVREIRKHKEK
KRAS-WT, sequence (P01116 with tags, fused parts or gaps isoform P01116-2): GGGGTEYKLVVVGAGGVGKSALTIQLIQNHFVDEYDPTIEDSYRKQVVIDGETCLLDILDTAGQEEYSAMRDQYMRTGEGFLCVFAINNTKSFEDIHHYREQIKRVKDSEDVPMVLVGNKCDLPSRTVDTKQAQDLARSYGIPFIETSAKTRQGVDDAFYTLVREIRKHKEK

SMILES | IC50 (KRAS-G12V; [2]) | IC50 (KRAS-G12D; [3]) | IC50 (KRAS-G13D; [4]) | IC50 (AsPC-1 cells; [5]) | IC50 [1, 6] | IC50 (KRAS-WT; [7]) | IC50 (AsPC-1 cells; ASPC1, 2 h, KRAS-G12D, 2 hours) | IC50 (KRAS-G12V; KRAS G12V GNE IC50, nucleotide exchange) | IC50 (KRAS-G12D; KRAS G12D GNE IC50, nucleotide exchange) | IC50 (KRAS-G13D) | IC50 (AsPC-1 cells; ASPC1, KRAS-G12D, 2 hours) | IC50 [1] | IC50 (KRAS-WT; KRAS WT GNE IC50, nucleotide exchange)
Cc1cc2[nH]ncc2c(-c2nccc3c2sc2nc(OC[C@@]45CCCN4C[C@H](F)C5)nc(N4CCCC5(CNC(=O)C5)C4)c23)c1C(F)(F)F (stereo partly drawn) [Ex-193, 7-(2-(((2R,7aS)-2-fluoro-tetrahydro-1H-pyrrolizin-7a(5H)-yl)methoxy)-8-(6-methyl-5-(trifluorometh-yl)-1H-indazol-4-yl)pyrido [4′,3′:4,5]thieno[2,3-d]pyrimidin-4-yl)-2,7-diaza-spiro[4.5]decan-3-one] | 476 nM | 643 nM | 970 nM | 18300 nM | 418 nM | 1200 nM |  |  |  |  |  |  | 
C#Cc1cccc2[nH]nc(-c3nccc4c3sc3nc(OC[C@@]56CCCN5C[C@H](F)C6)nc(N5CCOC[C@@](C)(O)C5)c34)c12 [Ex-159, (S)-4-(8-(4-ethynyl-1H-indazol-3-yl)-2-(((2R,7aS)-2-fluorotetrahydro-1H-pyrrolizin-7a(5H)-yl)methoxy)pyrido[4′,3′:4,5]thieno[2,3-d]pyrimidin-4-yl)-6-methyl-1,4-oxazepan-6-ol] | 118 nM | 260 nM | 328 nM | 1170 nM | 48.3 nM | 658 nM |  |  |  |  |  |  | 
Cc1cc2[nH]ncc2c(-c2ncnc3c2sc2nc(OC[C@@]45CCCN4C[C@H](F)C5)nc(N4CCOC[C@@](C)(O)C4)c23)c1C(F)(F)F [Ex-276, (6S)-4-(7-(((2R,7aS)-2-fluorotetrahydro-1H-pyrrolizin-7a(5H)-yl)methoxy)-4-(6-methyl-5-(trifluoromethyl)-1H-indazol-4-yl)thieno[2,3-d:4,5-d′]dipyrimidin-9-yl)-6-methyl-1,4-oxazepan-6-ol] | 312 nM | 423 nM | 461 nM |  | 124 nM | 796 nM | 1810 nM |  |  |  |  |  | 
Cc1cc2[nH]ncc2c(-c2nccn3c2cc2nc(OC[C@]4(CN(C)C)CC4(F)F)nc(N4CCOC[C@@](C)(O)C4)c23)c1C1CC1 [Ex-296, (S)-4-(9-(5-cyclopropyl-6-methyl-1H-indazol-4-yl)-2-(((R)-1-((dimethylamino)meth-yl)-2,2-difluorocyclopropyl)methoxy)pyrazino [1′,2′:1,5]pyrrolo[3,2-d]pyrimidin-4-yl)-6-methyl-1,4-oxazepan-6-ol] | 101 nM | 48.7 nM | 80.1 nM |  | 43.9 nM | 167 nM | 316 nM |  |  |  |  |  | 
CN(C)C[C@@]1(COc2nc(N3CCOC[C@@](C)(O)C3)c3c(n2)oc2c(-c4c(C5CC5)c(Cl)cc5[nH]ncc45)nccc23)CC1(F)F [Ex-294, (6S)-4-(8-(6-chloro-5-cyclopropyl-1H-indazol-4-yl)-2-(((R)-1-((dimethylamino)methyl)-2,2-difluorocyclopropyl)meth-oxy)pyrido[4′,3′:4,5]furo[2,3-d]pyrimidin-4-yl)-6-methyl-1,4-oxazepan-6-ol] | 125 nM | 113 nM | 106 nM |  | 30.1 nM | 262 nM | 295 nM |  |  |  |  |  | 
Cc1cc2[nH]ncc2c(-c2nccc3c2sc2nc(OC[C@@]45CCCN4C[C@H](F)C5)nc(NC4CCOC4)c23)c1C(F)(F)F (stereo partly drawn) [Ex-188, 2-(((2R,7aS)-2-fluoro-tetrahydro-1H-pyrrolizin-7a(5H)-yl)methoxy)-8-(6-methyl-5-(trifluoromethyl)-1H-indazol-4-yl)-N-(tetra-hydrofuran-3-yl)pyrido [4′,3′:4,5]thieno[2,3-d] pyrimidin-4-amine] | 753 nM | 4950 nM | 1250 nM | 3660 nM | 562 nM | 1860 nM |  |  |  |  |  |  | 
Cc1cc2[nH]ncc2c(-c2nncc3c2sc2nc(OC[C@@]45CCCN4C[C@H](F)C5)nc(N4CCOC[C@@](C)(O)C4)c23)c1C(F)(F)F [Ex-277, (6S)-4-(2-(((2R,7aS)-2-fluorotetrahydro-1H-pyrrolizin-7a(5H)-yl)methoxy)-8-(6-methyl-5-(trifluoromethyl)-1H-indazol-4-yl)pyrimido[5′,4′:4,5]thieno[2,3-d]pyridazin-4-yl)-6-methyl-1,4-oxazepan-6-ol] | 64.6 nM | 39.2 nM | 38 nM |  | 184 nM | 94.6 nM | 1100 nM |  |  |  |  |  | 
Cc1cc2[nH]ncc2c(-c2nccc3c2sc2nc(OC[C@@]45CCCN4C[C@H](F)C5)nc(N4CCOC[C@@](C)(O)C4)c23)c1C1=CCCC1 [Ex-140, (6S)-4-(8-(5-(cyclo-pent-1-en-1-yl)-6-methyl-1H-indazol-4-yl)-2-(((2R,7aS)-2-fluorotetrahydro-1H-pyrrolizin-7a(5H)-yl)methoxy)pyrido [4′,3′:4,5]thieno[2,3-d]pyrimidin-4-yl)-6-methyl-1,4-oxaze-pan-6-ol] | 65.3 nM | 69.3 nM | 172 nM | 560 nM | 362 nM | 184 nM |  |  |  |  |  |  | 
Cc1cc2[nH]ncc2c(-c2nccc3c2sc2nc(OC[C@@]45CCCN4C[C@H](F)C5)nc(NC4CCC4)c23)c1C(F)(F)F [Ex-191, N-cyclobutyl-2-(((2R,7aS)-2-fluorotetrahydro-1H-pyrrolizin-7a(5H)-yl)methoxy)-8-(6-methyl-5-(trifluoromethyl)-1H-indazol-4-yl)pyrido [4′,3′:4,5]thieno[2,3-d] pyrimidin-4-amine] | 5630 nM | 11100 nM | 3690 nM | 8560 nM | 423 nM | 11100 nM |  |  |  |  |  |  | 
Cc1cc2[nH]ncc2c(-c2nccc3c2[se]c2nc(OC[C@@]45CCCN4C[C@H](F)C5)nc(N4CCOC[C@@](C)(O)C4)c23)c1C(F)(F)F [Ex-288, (6S)-4-(2-(((2R,7aS)-2-fluorotetrahydro-1H-pyrrolizin-7a(5H)-yl)methoxy)-8-(6-methyl-5-(trifluoromethyl)-1H-indazol-4-yl)pyrido[4′,3′:4,5]selenopheno[2,3-d]pyrimidin-4-yl)-6-methyl-1,4-oxazepan-6-ol] |  |  |  |  |  |  |  | 25.9 nM | 34.6 nM | 50.7 nM | 374 nM | 22 nM | 69.1 nM
